Assay results reported in patent US20220041606A1, “POSITIVE ALLOSTERIC MODULATORS OF THE MUSCARINIC ACETYLCHOLINE RECEPTOR M1” (Vanderbilt University, priority 2020, published 2022).

Legend:
[1] = molecular target: T1, human mAChR M1 (Homo sapiens, UniProt P11229); test: mAChR M1 cell-based functional assay (calcium mobilization), agonist activity upon compound addition; settings: CHO-K1 cells expressing hM1; for EC50: compound alone, before acetylcholine addition; for Emax: relative to the maximum for acetylcholine
T1 construct: host or cells: CHO-K1 cells (ATCC), stably transfected using Lipofectamine2000
T1 sequence (P11229 1-460): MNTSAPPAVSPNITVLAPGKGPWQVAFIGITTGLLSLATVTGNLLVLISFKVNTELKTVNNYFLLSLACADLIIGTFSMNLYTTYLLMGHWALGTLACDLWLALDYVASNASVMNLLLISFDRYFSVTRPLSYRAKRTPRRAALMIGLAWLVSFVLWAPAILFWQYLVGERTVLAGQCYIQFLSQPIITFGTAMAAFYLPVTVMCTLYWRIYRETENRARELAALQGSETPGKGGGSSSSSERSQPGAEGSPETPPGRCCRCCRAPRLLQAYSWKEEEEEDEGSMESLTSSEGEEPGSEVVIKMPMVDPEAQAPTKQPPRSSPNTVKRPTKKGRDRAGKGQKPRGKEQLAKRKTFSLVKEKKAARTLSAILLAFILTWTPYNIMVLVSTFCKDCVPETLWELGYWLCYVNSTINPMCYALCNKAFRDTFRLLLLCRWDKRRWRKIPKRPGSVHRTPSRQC
Excerpt: (§1) Chinese hamster ovary (CHO-K1) cells stably expressing rat (r)M1 were purchased from the American Type Culture Collection and cultured according to their indicated protocol. CHO cells stably expressing human (h)M2, hM3, and hM5 were described previously (Levey, et al., 1991); hM1 and hM4 cDNAs were purchased from Missouri S&T cDNA Resource; rM4 cDNA was provided by T. L. Bonner (National Institutes of Health, Bethesda, MID). rM2 and rM3 were cloned from a rat brain cDNA library and sequence verified. hM1, rM2, rM3, hM4, and rM4 cDNAs were used to stably transfect CHO-K1 cells purchased from the American Type Culture Collection using Lipofectamine2000. To make stable rM2, hM2, rM3, hM4, and rM4 cell lines for use in calcium mobilization assays, these cells also were stably transfected with a chimeric G-protein (Gqi5) (provided by B. R. Conklin, University of California, San Francisco) using Lipofectamine 2000. rM1, hM1, rM3, hM3, rM5, and hM5 cells were grown in Ham's F-12 medium containing 10% heat-inactivated fetal bovine serum (FBS), 20 mM HEPES, and 50 μg/mL G418 sulfate. rM2-Gq15, hM2-Gqi5, and hM4-Gqi5 cells were grown in the same medium also containing 500 μg/mL Hygromycin B. Stable rM4-Gqi5 cells were grown in DMEM containing 10% heat-inactivated FBS, 20 mM HEPES, 400 μg/mL G418 sulfate, and 500 μg/mL Hygromycin B.
(§2) For high throughput measurement of agonist-evoked increases in intracellular calcium, CHO-K1 cells stably expressing muscarinic receptors were plated in growth medium lacking G418 and hygromycin at 15,000 cells/20 μL/well in Greiner 384-well black-walled, tissue culture (TC)-treated, clear-bottom plates (VWR). Cells were incubated overnight at 37° C. and 5% CO2. The next day, cells were washed using an ELX 405 (BioTek) with four washes (80 μL) of assay buffer then aspirated to 20 μL. Next, 20 μL of 16 μM Fluo-4/acetoxymethyl ester (Invitrogen, Carlsbad, Calif.) prepared as a 2.3 mM stock in DMSO and mixed in a 1:1 ratio with 10% (w/v) Pluronic F-127 and diluted in assay buffer was added to the wells and the cell plates were incubated for 50 min at 37° C. and 5% CO2. Dye was removed by washing with the ELX 405 (four 80 μL washes of assay buffer) then aspirated to 20 μL. Compound master plates were formatted in an 11 point CRC format (1:3 dilutions) in 100% DMSO with a starting concentration of 10 mM using the BRAVO liquid handler (Agilent). Test compound CRCs were then transferred to daughter plates (240 nL) using the Echo acoustic plate reformatter (Labcyte, Sunnyvale, Calif.) and then diluted into assay buffer (40 μL) to a 2× stock using a Thermo Fisher Combi (Thermo Fisher Scientific, Waltham, Mass.).
(§3) Calcium flux was measured using the Functional Drug Screening System (FDSS) 6000 (Hamamatsu Corporation, Tokyo, Japan) as an increase in the fluorescent static ratio. Compounds were applied to cells (20 μL, 2×) using the automated system of the FDSS 6000 at 4 s into the 300 s protocol and the data were collected at 1 Hz. At 144 s into the 300s protocol, 10 μL of an EC20 concentration of the muscarinic receptor agonist acetylcholine was added (5×), followed by the addition of 12 μL an EC80 concentration of acetylcholine at the 230 s time point (5×). Agonist activity was analyzed as a concentration-dependent increase in calcium mobilization upon compound addition. Emax values for agonist activity are expressed relative to the maximum for acetylcholine. Positive allosteric modulator activity was analyzed as a concentration-dependent increase in the EC20 acetylcholine response. Antagonist activity was analyzed as a concentration-dependent decrease in the EC80 acetylcholine response. Concentration-response curves were generated using a four-parameter logistical equation in XLfit curve fitting software (IDBS, Bridgewater, N.J.) for Excel (Microsoft, Redmond, Wash.) or Prism (GraphPad Software, Inc., San Diego, Calif.). […]

[2] = molecular target: T1, human mAChR M1; test: mAChR M1 cell-based functional assay (calcium mobilization), PAM activity: increase in the EC20 acetylcholine response; settings: CHO-K1 cells expressing hM1; potentiation of EC20 acetylcholine response
Excerpt: as §1, §2, §3

Structure (SMILES) | EC50 [1] | Emax [1] | EC50 [2] | Emax [2]
Cn1nccc1-c1cc(F)c(Cn2cc(C(=O)N[C@H]3CCCC[C@@H]3O)c3ncccc3c2=O)c(F)c1 [Compound A48, 6-(2,6-difluoro-4-(1-methyl-1H-pyrazol-5-yl)benzyl)-N-((1S,2S)-2-hydroxycyclohexyl)-5-oxo-5,6-dihydro-1,6-naphthyridine-8-carboxamide] | > 10 µM | < 5% | 0.66 µM | 38%
Cn1ccc(-c2ccc(Cn3cc(C(=O)N[C@H]4CCC[C@@H]4O)c4ncccc4c3=O)c(F)c2)n1 [Compound A3, 6-(2-fluoro-4-(1-methyl-1H-pyrazol-3-yl)benzyl)-N-((1S,2S)-2-hydroxycyclopentyl)-5-oxo-5,6-dihydro-1,6-naphthyridine-8-carboxamide] | > 10 µM | < 5% | 1.66 µM | 83%
Cc1nc(-c2ccc(Cn3cc(C(=O)N[C@H]4CCCC[C@@H]4O)c4ncccc4c3=O)cc2)co1 [Compound A20, N-((1S,2S)-2-hydroxycyclohexyl)-6-(4-(2-methyloxazol-4-yl)benzyl)-5-oxo-5,6-dihydro-1,6-naphthyridine-8-carboxamide] | > 10 µM | < 5% | 0.78 µM | 63%
Cn1ccc(-c2ccc(Cn3cc(C(=O)N[C@H]4CCCC[C@@H]4O)c4nccn4c3=O)c(F)c2)n1 [Compound B2, 6-(2-fluoro-4-(1-methyl-1H-pyrazol-3-yl)benzyl)-N-((1S,2S)-2-hydroxycyclohexyl)-5-oxo-5,6-dihydroimidazo[1,2-c]pyrimidine-8-carboxamide] | 3.7 µM | 60% | 0.096 µM | 68%
Cc1cn2c(=O)n(Cc3ccc(-c4cnn(C)c4)cc3F)cc(C(=O)N[C@H]3CCCC[C@@H]3O)c2n1 [Compound B24, 6-(2-fluoro-4-(1-methyl-1H-pyrazol-4-yl)benzyl)-N-((1S,2S)-2-hydroxycyclohexyl)-2-methyl-5-oxo-5,6-dihydroimidazo[1,2-c]pyrimidine-8-carboxamide] | > 10 µM | < 5% | ≥ 10 µM | 41%
Cn1cc2c(-c3cc(F)c(Cn4cc(C(=O)N[C@H]5CCC[C@@H]5O)c5nccn5c4=O)c(F)c3)cccc2n1 [Compound B21, 6-(2,6-difluoro-4-(2-methyl-2H-indazol-4-yl)benzyl)-N-((1S,2S)-2-hydroxycyclopentyl)-5-oxo-5,6-dihydroimidazo[1,2-c]pyrimidine-8-carboxamide] | > 10 µM | < 5% | 0.9 µM | 59%
Cn1cc(-c2ccc(Cn3cc(C(=O)N[C@H]4CCCCC[C@@H]4O)c4nccn4c3=O)c(F)c2)cn1 [Compound B15, 6-(2-fluoro-4-(1-methyl-1H-pyrazol-4-yl)benzyl)-N-((1S,2S)-2-hydroxycycloheptyl)-5-oxo-5,6-dihydroimidazo[1,2-c]pyrimidine-8-carboxamide] | 2.96 µM | 64% | 0.027 µM | 70%

Now from value to molecule:

EC50 [1] | Emax [1] | EC50 [2] | Emax [2] | Structure (SMILES)
> 10 µM | < 5% | 5.29 µM | 42% | Cn1cc2c(-c3cc(F)c(Cn4cc(C(=O)N[C@H]5CCCCC[C@@H]5O)c5sccc5c4=O)c(F)c3)cccc2n1 [Compound D33, 5-(2,6-difluoro-4-(2-methyl-2H-indazol-4-yl)benzyl)-N-((1S,2S)-2-hydroxycycloheptyl)-4-oxo-4,5-dihydrothieno[3,2-c]pyridine-7-carboxamide]
> 10 µM | < 5% | > 10 µM | 40% | Cn1ccc(-c2ccc(Cn3cc(C(=O)N[C@H]4CCCCC[C@@H]4O)c4sccc4c3=O)c(F)c2)n1 [Compound D28, 5-(2-fluoro-4-(1-methyl-1H-pyrazol-3-yl)benzyl)-N-((1S,2S)-2-hydroxycycloheptyl)-4-oxo-4,5-dihydrothieno[3,2-c]pyridine-7-carboxamide]
> 10 µM | 9% | 0.43 µM | 82% | Cn1cc2c(-c3cc(F)c(Cn4cc(C(=O)N[C@H]5CCCC[C@@H]5O)c5occc5c4=O)c(F)c3)cccc2n1 [Compound D19, 5-(2,6-difluoro-4-(2-methyl-2H-indazol-4-yl)benzyl)-N-((1S,2S)-2-hydroxycyclohexyl)-4-oxo-4,5-dihydrofuro[3,2-c]pyridine-7-carboxamide]
> 10 µM | 9% | 0.95 µM | 81% | Cn1cc2c(-c3cc(F)c(Cn4cc(C(=O)N[C@H]5CCCCC[C@@H]5O)c5occc5c4=O)c(F)c3)cccc2n1 [Compound D22, 5-(2,6-difluoro-4-(2-methyl-2H-indazol-4-yl)benzyl)-N-((1S,2S)-2-hydroxycycloheptyl)-4-oxo-4,5-dihydrofuro[3,2-c]pyridine-7-carboxamide]
> 10 µM | 11% | 2.12 µM | 81% | Cn1cc(-c2ccc(Cn3cc(C(=O)N[C@H]4CCCC[C@@H]4O)c4occc4c3=O)c(F)c2)cn1 [Compound D13, 5-(2-fluoro-4-(1-methyl-1H-pyrazol-4-yl)benzyl)-N-((1S,2S)-2-hydroxycyclohexyl)-4-oxo-4,5-dihydrofuro[3,2-c]pyridine-7-carboxamide]
> 10 µM | < 5% | > 10 µM | 37% | Cn1ccc(-c2ccc(Cn3cc(C(=O)N[C@H]4CCCC[C@@H]4O)c4sccc4c3=O)c(F)c2)n1 [Compound D27, 5-(2-fluoro-4-(1-methyl-1H-pyrazol-3-yl)benzyl)-N-((1S,2S)-2-hydroxycyclohexyl)-4-oxo-4,5-dihydrothieno[3,2-c]pyridine-7-carboxamide]
> 10 µM | < 5% | > 10 µM | 29% | Cn1cc(-c2ccc(Cn3cc(C(=O)N[C@@H]4CC[C@H]4O)c4occc4c3=O)c(F)c2)cn1 (stereo in doubt) [Compound D15, 5-(2-fluoro-4-(1-methyl-1H-pyrazol-4-yl)benzyl)-N-((1R,2R)-2-hydroxycyclobutyl)-4-oxo-4,5-dihydrofuro[3,2-c]pyridine-7-carboxamide]
> 10 µM | < 5% | 5.12 µM | 62% | O=C(N[C@H]1CCCC[C@@H]1O)c1cn(Cc2ccc(-n3cccn3)cc2)c(=O)c2ccoc12 [Compound D3, 5-(4-(1H-pyrazol-1-yl)benzyl)-N-((1S,2S)-2-hydroxycyclohexyl)-4-oxo-4,5-dihydrofuro[3,2-c]pyridine-7-carboxamide]
